Test results from the NIST ThermoML archive (doi:10.1016/j.tca.2005.08.034).

Experiments:
[1] = 298.15 K; for surface tension liquid-gas: Drop volume; for speed of sound / mass density: 101.33 kPa, Liquid; for mass density: Vibrating tube method
[2] = refractive index (Na D-line) (dimensionless); settings: 298.15 K; 101.33 kPa; Liquid; refractometer
[3] = xn = mol fraction of the nth substance listed; settings: 298.15 K; for surface tension liquid-gas: Drop volume; for mass density / speed of sound: 101.3 kPa, Liquid; for mass density: Vibrating tube method
[4] = refractive index (Na D-line) (dimensionless); φn = volume fraction of the nth substance listed; settings: 298.15 K, 101.3 kPa, Liquid, refractometer
[5] = excess molar enthalpy (molar enthalpy of mixing); xn = mol fraction of the nth substance listed; settings: 298.15 K, 101.3 kPa, Liquid, Flow calorimetry

CC1CCCO1 (stereo unspecified) [2-methyltetrahydrofuran]
Settings | mass density [kg/m3] | refractive index | speed of sound [m/s] | surface tension liquid-gas [mN/m]
[1] | 849.2 | – | 1202.8 | 24.68
[2] | – | 1.40287 | – | –

CC1CCCO1 (stereo unspecified) [2-methyltetrahydrofuran] + Clc1ccccc1
Settings | excess molar enthalpy [kcal/mol] | mass density [kg/m3] | refractive index | speed of sound [m/s] | surface tension liquid-gas [mN/m]
[3], x1 = 0.0378 | – | 1092.14 | – | 1266.6 | –
[3], x1 = 0.0483 | – | – | – | – | 32.6
[3], x1 = 0.0969 | – | – | – | – | 32.19
[3], x1 = 0.0995 | – | 1077.75 | – | 1264.3 | –
[3], x1 = 0.1875 | – | 1056.86 | – | 1261.1 | –
[3], x1 = 0.1993 | – | – | – | – | 31.31
[3], x1 = 0.2987 | – | 1030.2 | – | 1256.5 | –
[3], x1 = 0.2999 | – | – | – | – | 30.45
[3], x1 = 0.3922 | – | 1007.36 | – | 1251.9 | –
[3], x1 = 0.3988 | – | – | – | – | 29.61
[3], x1 = 0.4947 | – | 981.73 | – | 1246.3 | –
[3], x1 = 0.503 | – | – | – | – | 28.74
[3], x1 = 0.5973 | – | 955.71 | – | 1239.9 | –
[3], x1 = 0.6008 | – | – | – | – | 27.92
[3], x1 = 0.6435 | – | 943.88 | – | 1236.6 | –
[3], x1 = 0.7024 | – | – | – | – | 27.09
[3], x1 = 0.8003 | – | 902.98 | – | 1223.5 | –
[3], x1 = 0.8028 | – | – | – | – | 26.27
[3], x1 = 0.9051 | – | – | – | – | 25.44
[3], x1 = 0.9074 | – | 874.39 | – | 1212.9 | –
[3], x1 = 0.9393 | – | 865.76 | – | 1209.6 | –
[3], x1 = 0.9496 | – | – | – | – | 25.08
[4], φ1 = 0.0479 | – | – | 1.5165 | – | –
[4], φ1 = 0.0961 | – | – | 1.5112 | – | –
[4], φ1 = 0.1979 | – | – | 1.49985 | – | –
[4], φ1 = 0.2981 | – | – | 1.48853 | – | –
[4], φ1 = 0.3966 | – | – | 1.47724 | – | –
[4], φ1 = 0.5008 | – | – | 1.46501 | – | –
[4], φ1 = 0.5987 | – | – | 1.45323 | – | –
[4], φ1 = 0.7006 | – | – | 1.44079 | – | –
[4], φ1 = 0.8014 | – | – | 1.4283 | – | –
[4], φ1 = 0.9043 | – | – | 1.41518 | – | –
[4], φ1 = 0.9492 | – | – | 1.40941 | – | –
[5], x1 = 0.058 | -0.0203 | – | – | – | –
[5], x1 = 0.105 | -0.0402 | – | – | – | –
[5], x1 = 0.198 | -0.0793 | – | – | – | –
[5], x1 = 0.294 | -0.114 | – | – | – | –
[5], x1 = 0.391 | -0.137 | – | – | – | –
[5], x1 = 0.488 | -0.15 | – | – | – | –
[5], x1 = 0.585 | -0.149 | – | – | – | –
[5], x1 = 0.683 | -0.137 | – | – | – | –
[5], x1 = 0.784 | -0.107 | – | – | – | –
[5], x1 = 0.883 | -0.0626 | – | – | – | –
[5], x1 = 0.932 | -0.0394 | – | – | – | –

CC1CCCO1 (stereo unspecified) [2-methyltetrahydrofuran] + c1ccccc1
Settings | excess molar enthalpy [kcal/mol] | mass density [kg/m3] | refractive index | speed of sound [m/s] | surface tension liquid-gas [mN/m]
[3], x1 = 0.0456 | – | 872.27 | – | 1295.7 | –
[3], x1 = 0.0536 | – | – | – | – | 28.33
[3], x1 = 0.0971 | – | – | – | – | 28.15
[3], x1 = 0.0981 | – | 871 | – | 1290.9 | –
[3], x1 = 0.1962 | – | – | – | – | 27.74
[3], x1 = 0.1987 | – | 868.57 | – | 1281.6 | –
[3], x1 = 0.2996 | – | 866.21 | – | 1271.8 | –
[3], x1 = 0.3039 | – | – | – | – | 27.3
[3], x1 = 0.395 | – | 863.99 | – | 1263 | –
[3], x1 = 0.396 | – | – | – | – | 26.92
[3], x1 = 0.4976 | – | – | – | – | 26.51
[3], x1 = 0.4979 | – | 861.47 | – | 1253.1 | –
[3], x1 = 0.5949 | – | 859.05 | – | 1243.6 | –
[3], x1 = 0.5976 | – | – | – | – | 26.12
[3], x1 = 0.6798 | – | 856.87 | – | 1235.1 | –
[3], x1 = 0.704 | – | – | – | – | 25.71
[3], x1 = 0.7992 | – | 853.68 | – | 1222.7 | –
[3], x1 = 0.8033 | – | – | – | – | 25.36
[3], x1 = 0.896 | – | 851.23 | – | 1212.7 | –
[3], x1 = 0.9034 | – | – | – | – | 25.01
[3], x1 = 0.9486 | – | 850.1 | – | 1207.5 | –
[3], x1 = 0.9535 | – | – | – | – | 24.84
[4], φ1 = 0.0603 | – | – | 1.49204 | – | –
[4], φ1 = 0.1086 | – | – | 1.48747 | – | –
[4], φ1 = 0.2167 | – | – | 1.47724 | – | –
[4], φ1 = 0.331 | – | – | 1.46642 | – | –
[4], φ1 = 0.4263 | – | – | 1.4574 | – | –
[4], φ1 = 0.5289 | – | – | 1.44769 | – | –
[4], φ1 = 0.6273 | – | – | 1.43835 | – | –
[4], φ1 = 0.7294 | – | – | 1.42866 | – | –
[4], φ1 = 0.8223 | – | – | 1.41981 | – | –
[4], φ1 = 0.9137 | – | – | 1.41109 | – | –
[4], φ1 = 0.9587 | – | – | 1.40681 | – | –
[5], x1 = 0.054 | -0.00526 | – | – | – | –
[5], x1 = 0.097 | -0.011 | – | – | – | –
[5], x1 = 0.188 | -0.0232 | – | – | – | –
[5], x1 = 0.279 | -0.033 | – | – | – | –
[5], x1 = 0.377 | -0.0409 | – | – | – | –
[5], x1 = 0.494 | -0.0449 | – | – | – | –
[5], x1 = 0.575 | -0.0464 | – | – | – | –
[5], x1 = 0.679 | -0.0423 | – | – | – | –
[5], x1 = 0.783 | -0.0332 | – | – | – | –
[5], x1 = 0.89 | -0.0196 | – | – | – | –
[5], x1 = 0.944 | -0.0108 | – | – | – | –

c1ccccc1 [benzene]
Settings | mass density [kg/m3] | refractive index | speed of sound [m/s] | surface tension liquid-gas [mN/m]
[1] | 873.39 | – | 1299.2 | 28.57
[2] | – | 1.49774 | – | –

Clc1ccccc1 [chlorobenzene]
Settings | mass density [kg/m3] | refractive index | speed of sound [m/s] | surface tension liquid-gas [mN/m]
[1] | 1100.94 | – | 1267.9 | 33
[2] | – | 1.52176 | – | –

Fc1ccccc1 [fluorobenzene]
Settings | mass density [kg/m3] | refractive index | speed of sound [m/s] | surface tension liquid-gas [mN/m]
[1] | 1018.79 | – | 1166 | 27.43
[2] | – | 1.4629 | – | –

Fc1ccccc1 [fluorobenzene] + CC1CCCO1
Settings | excess molar enthalpy [kcal/mol] | mass density [kg/m3] | refractive index | speed of sound [m/s] | surface tension liquid-gas [mN/m]
[3], x2 = 0.0364 | – | – | – | – | 27.39
[3], x2 = 0.0456 | – | 1011.05 | – | 1168.5 | –
[3], x2 = 0.099 | – | 1001.97 | – | 1171.6 | –
[3], x2 = 0.108 | – | – | – | – | 27.27
[3], x2 = 0.1923 | – | 986.13 | – | 1176.9 | –
[3], x2 = 0.1998 | – | – | – | – | 27.07
[3], x2 = 0.2882 | – | 969.82 | – | 1182.1 | –
[3], x2 = 0.2952 | – | – | – | – | 26.83
[3], x2 = 0.3925 | – | 952.32 | – | 1187.1 | –
[3], x2 = 0.3998 | – | – | – | – | 26.52
[3], x2 = 0.4884 | – | 936.02 | – | 1191.1 | –
[3], x2 = 0.4958 | – | – | – | – | 26.21
[3], x2 = 0.5925 | – | 918.32 | – | 1194.8 | –
[3], x2 = 0.6048 | – | – | – | – | 25.86
[3], x2 = 0.6784 | – | – | – | – | 25.62
[3], x2 = 0.6907 | – | 901.51 | – | 1197.6 | –
[3], x2 = 0.7796 | – | – | – | – | 25.3
[3], x2 = 0.7942 | – | 883.72 | – | 1199.4 | –
[3], x2 = 0.8938 | – | 866.65 | – | 1201 | –
[3], x2 = 0.9097 | – | – | – | – | 24.92
[3], x2 = 0.9481 | – | 857.59 | – | 1201.9 | –
[3], x2 = 0.9707 | – | – | – | – | 24.76
[4], φ2 = 0.039 | – | – | 1.4608 | – | –
[4], φ2 = 0.1151 | – | – | 1.45666 | – | –
[4], φ2 = 0.2069 | – | – | 1.4516 | – | –
[4], φ2 = 0.3103 | – | – | 1.44577 | – | –
[4], φ2 = 0.4171 | – | – | 1.4396 | – | –
[4], φ2 = 0.5137 | – | – | 1.43392 | – | –
[4], φ2 = 0.6218 | – | – | 1.42736 | – | –
[4], φ2 = 0.6938 | – | – | 1.42282 | – | –
[4], φ2 = 0.7916 | – | – | 1.41661 | – | –
[4], φ2 = 0.9154 | – | – | 1.40849 | – | –
[4], φ2 = 0.9727 | – | – | 1.40473 | – | –
[5], x2 = 0.056 | -0.0191 | – | – | – | –
[5], x2 = 0.101 | -0.0373 | – | – | – | –
[5], x2 = 0.195 | -0.0746 | – | – | – | –
[5], x2 = 0.288 | -0.103 | – | – | – | –
[5], x2 = 0.388 | -0.125 | – | – | – | –
[5], x2 = 0.474 | -0.138 | – | – | – | –
[5], x2 = 0.583 | -0.136 | – | – | – | –
[5], x2 = 0.685 | -0.124 | – | – | – | –
[5], x2 = 0.786 | -0.0966 | – | – | – | –
[5], x2 = 0.889 | -0.0574 | – | – | – | –
[5], x2 = 0.94 | -0.0323 | – | – | – | –
